Experimental data reported in patent US9132126B2, “Phenyl-isoxazole derivatives and preparation process thereof” (priority 2011, dated 2015).
Converted amounts (≈) assume the structure as drawn. Where two headings read alike, the source gives them in different places.

Test system: Oseltamivir resistant strain virus
Experiment: microbe, parasite or virus in culture
Type: cell-based, influenza virus
[1] = unidentified influenza virus, read-out: EC50

SMILES | SI value | antiviral activity effect on a virus strain resistant to Oseltamivir (tamiflu) (in words) | EC50 [1] [µg/mL] | antiviral activity effect on a virus strain resistant to Oseltamivir (tamiflu) | EC50 (Oseltamivir resistant strain) [µg/mL]
COc1cccc(N2CCN(C(=O)c3c(-c4ccccc4Cl)noc3C)CC2)c1 [Example 9, (3-(2-chlorophenyl)-5-methylisoxazol-4-yl)(4-(3-methoxyphenyl)piperazine-1-yl)methanone] | 3221.649 to 13020.833 | high antiviral activity effect | 0.048 to 0.097 (≈ 0.117 to 0.236 µM) |  | 
Cc1onc(-c2ccccc2OC(F)(F)F)c1C(=O)N1CCN(c2ccc(Cl)c(Cl)c2)CC1 [Example 35, (4-(3,4-dichlorophenyl)piperazine-1-yl)(5-methyl-3-(2-(trifluoromethoxy)phenyl)isoxazol-4-yl)methanone] | 1602.564 to 3205.128 | high antiviral activity effect | 0.195 (≈ 0.39 µM) |  | 
COc1cccc(N2CCN(C(=O)c3c(-c4cccc(F)c4)noc3C)CC2)c1 [Example 12, (3-(3-fluorophenyl)-5-methylisoxazol-4-yl)(4-(3-methoxyphenyl)piperazine-1-yl)methanone] | 50.016 to 100.032 | high antiviral activity effect | 1.56 (≈ 3.95 µM) |  | 
Cc1onc(-c2cccc(F)c2)c1C(=O)N1CCN(c2ccccc2O)CC1 [Example 16, (3-(3-fluorophenyl)-5-methylisoxazol-4-yl)(4-(2-hydroxyphenyl)piperazine-1-yl)methanone] | 100.032 to 200.321 | high antiviral activity effect | 0.39 to 0.781 (≈ 1.02 to 2.05 µM) |  | 
COc1ccccc1N1CCN(C(=O)c2c(-c3ccccc3C(F)(F)F)noc2C)CC1 [Example 4] | 1.563 to 3.125 |  |  | high antiviral activity effect | 50 (≈ 112 µM)
CCOC(=O)C1=C[C@@H](OC(CC)CC)[C@H](NC(C)=O)[C@@H](N)C1 [Oseltamivir, reference compound] | 12.5 to 25 |  | 50 (≈ 160 µM) |  | 
COc1cccc(N2CCN(C(=O)c3c(-c4ccccc4Cl)noc3N)CC2)c1 [Example 60, (5-amino-3-(2-chlorophenyl)isoxazol-4-yl)(4-(3-methoxyphenyl)piperazine-1-yl)methanone] |  | high antiviral activity effect | 0.053 to 0.094 (≈ 0.128 to 0.228 µM) |  | 
Cc1onc(-c2cccc(F)c2)c1C(=O)N1CCN(c2ccc(Cl)c(Cl)c2)CC1 [Example 11, (4-(3,4-dichlorophenyl)piperazine-1-yl)(3-(3-fluorophenyl)-5-methylisoxazol-4-yl)methanone] | 1471.794 to 3205.128 | high antiviral activity effect | 0.195 (≈ 0.449 µM) |  | 
CCOC(=O)C1CCN(C(=O)c2c(-c3ccccc3OC(F)(F)F)noc2N)CC1 [Example 124] | 12.5 |  |  | high antiviral activity effect | 25 (≈ 58.5 µM)
COc1cccc(N2CCN(C(=O)c3c(-c4ccccc4C(F)(F)F)noc3C)CC2)c1 [Example 3, (4-(3-methoxyphenyl)piperazine-1-yl)(5-methyl-3-(2-(trifluoromethyl)phenyl)isoxazol-4-yl)methanone] | 3276.59 to 9812.50 | high antiviral activity effect | 0.064 to 0.094 (≈ 0.144 to 0.211 µM) |  | 
